# From PubChem BioAssay AID2060495 (Molecular Pharmacology Branch, DTP, NCI, 2025)
# Tested on: 521955-158-R2-J5-PDC complex spheroid viability
# Test: Anticancer human tumor 521955-158-R2-J5-PDC patient-derived pancreatic carcinoma cell line growth inhibition [GQUAD]
# Conditions: for IC50: curve of first compound; for viability, T/C: stronger effect = lower value
# How it was run: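 Viability of tumor cells grown as complex spheroids with endothelial and stromal cells, exposed to drug combinations. Top concentration at or near clinical Cmax (else 10 microM), diluted in half-log increments.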
# [1] = second compound 0.0316 µM, first compound 0.0316 µM
# [2] = second compound 0.0316 µM, first compound 0.1 µM
# [3] = second compound 0.0316 µM, first compound 0.316 µM
# [4] = second compound 0.0316 µM, first compound 1 µM
# [5] = second compound 0.0316 µM, first compound 3.16 µM
# [6] = second compound 0.0316 µM, first compound 10 µM
# [7] = second compound 0.1 µM, first compound 0.0316 µM
# [8] = second compound 0.1 µM, first compound 0.1 µM
# [9] = second compound 0.1 µM, first compound 0.316 µM
# [10] = second compound 0.1 µM, first compound 1 µM
# [11] = second compound 0.1 µM, first compound 3.16 µM
# [12] = second compound 0.1 µM, first compound 10 µM
# [13] = second compound 0.316 µM, first compound 0.0316 µM
# [14] = second compound 0.316 µM, first compound 0.1 µM
# [15] = second compound 0.316 µM, first compound 0.316 µM
# [16] = second compound 0.316 µM, first compound 1 µM
# [17] = second compound 0.316 µM, first compound 3.16 µM
# [18] = second compound 0.316 µM, first compound 10 µM
# [19] = second compound 1 µM, first compound 0.0316 µM
# [20] = second compound 1 µM, first compound 0.1 µM
# [21] = second compound 1 µM, first compound 0.316 µM
# [22] = second compound 1 µM, first compound 1 µM
# [23] = second compound 1 µM, first compound 3.16 µM
# [24] = second compound 1 µM, first compound 10 µM
# [25] = second compound 3.16 µM, first compound 0.0316 µM
# [26] = second compound 3.16 µM, first compound 0.1 µM
# [27] = second compound 3.16 µM, first compound 0.316 µM
# [28] = second compound 3.16 µM, first compound 1 µM
# [29] = second compound 3.16 µM, first compound 3.16 µM
# [30] = second compound 3.16 µM, first compound 10 µM
# [31] = second compound 10 µM, first compound 0.0316 µM
# [32] = second compound 10 µM, first compound 0.1 µM
# [33] = second compound 10 µM, first compound 0.316 µM
# [34] = second compound 10 µM, first compound 1 µM
# [35] = second compound 10 µM, first compound 3.16 µM
# [36] = second compound 10 µM, first compound 10 µM
# 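Note: spheroids exposed to agents for one week before reading.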
# 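Throughout, for viability, T/C: 100% = DMSO vehicle control viability.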
compound,measurement,setting,value
O=C(NO)c1cnc(N2CCN(S(=O)(=O)c3ccc4ccccc4c3)CC2)nc1 + Cc1cnc(CNC(=O)c2c(=O)c3ccc(N4CCCN(C)CC4)nc3n3c2sc2ccccc23)cn1,IC50,second compound 0.0316 µM,233 nM
same,IC50,second compound 0.1 µM,167 nM
same,IC50,second compound 0.316 µM,< 31.6 nM
same,IC50,second compound 1 µM,< 31.6 nM
same,IC50,second compound 3.16 µM,< 31.6 nM
same,IC50,second compound 10 µM,< 31.6 nM
same,"viability, T/C",[1],106%
same,"viability, T/C",[2],78.9%
same,"viability, T/C",[3],42.1%
same,"viability, T/C",[4],5.64%
same,"viability, T/C",[5],0.04%
same,"viability, T/C",[6],0.1%
same,"viability, T/C",[7],53.6%
same,"viability, T/C",[8],51.4%
same,"viability, T/C",[9],47%
same,"viability, T/C",[10],6.79%
same,"viability, T/C",[11],0.05%
same,"viability, T/C",[12],0.08%
same,"viability, T/C",[13],27.5%
same,"viability, T/C",[14],36.1%
same,"viability, T/C",[15],29.8%
same,"viability, T/C",[16],1.02%
same,"viability, T/C",[17],0.05%
same,"viability, T/C",[18],0.07%
same,"viability, T/C",[19],20.1%
same,"viability, T/C",[20],22.9%
same,"viability, T/C",[21],12.9%
same,"viability, T/C",[22],0.1%
same,"viability, T/C",[23],0.04%
same,"viability, T/C",[24],0.08%
same,"viability, T/C",[25],11.7%
same,"viability, T/C",[26],17.4%
same,"viability, T/C",[27],4.19%
same,"viability, T/C",[28],0.1%
same,"viability, T/C",[29],0.07%
same,"viability, T/C",[30],0.11%
same,"viability, T/C",[31],11.8%
same,"viability, T/C",[32],8.03%
same,"viability, T/C",[33],2.82%
same,"viability, T/C",[34],0.14%
same,"viability, T/C",[35],0.15%
same,"viability, T/C",[36],0.18%
CC(=O)O[C@H]1C(=O)[C@@]2(C)[C@H]([C@H](OC(=O)c3ccccc3)[C@]3(O)C[C@H](OC(=O)[C@H](O)[C@@H](NC(=O)c4ccccc4)c4ccccc4)C(C)=C1C3(C)C)[C@]1(OC(C)=O)CO[C@@H]1C[C@@H]2O + Cc1cnc(CNC(=O)c2c(=O)c3ccc(N4CCCN(C)CC4)nc3n3c2sc2ccccc23)cn1,IC50,second compound 0.0316 µM,< 31.6 nM
same,IC50,second compound 0.1 µM,< 31.6 nM
same,IC50,second compound 0.316 µM,< 31.6 nM
same,IC50,second compound 1 µM,< 31.6 nM
same,IC50,second compound 3.16 µM,< 31.6 nM
same,IC50,second compound 10 µM,< 31.6 nM
same,"viability, T/C",[1],23.3%
same,"viability, T/C",[2],14.8%
same,"viability, T/C",[3],11.8%
same,"viability, T/C",[4],13.7%
same,"viability, T/C",[5],11.2%
same,"viability, T/C",[6],12.1%
same,"viability, T/C",[7],24.5%
same,"viability, T/C",[8],15.2%
same,"viability, T/C",[9],15.3%
same,"viability, T/C",[10],10.4%
same,"viability, T/C",[11],12%
same,"viability, T/C",[12],14.6%
same,"viability, T/C",[13],24.6%
same,"viability, T/C",[14],16.7%
same,"viability, T/C",[15],12.1%
same,"viability, T/C",[16],10.6%
same,"viability, T/C",[17],12%
same,"viability, T/C",[18],12.1%
same,"viability, T/C",[19],15.1%
same,"viability, T/C",[20],11%
same,"viability, T/C",[21],8.58%
same,"viability, T/C",[22],9.85%
same,"viability, T/C",[23],10.3%
same,"viability, T/C",[24],8.46%
same,"viability, T/C",[25],9.56%
same,"viability, T/C",[26],3.21%
same,"viability, T/C",[27],0.92%
same,"viability, T/C",[28],0.43%
same,"viability, T/C",[29],0.28%
same,"viability, T/C",[30],3.89%
same,"viability, T/C",[31],0.14%
same,"viability, T/C",[32],2.35%
same,"viability, T/C",[33],0.16%
same,"viability, T/C",[34],0.27%
same,"viability, T/C",[35],2.45%
same,"viability, T/C",[36],0.15%
CC1COCCN1c1cc(C2(S(C)(=N)=O)CC2)nc(-c2ccnc3[nH]ccc23)n1 (stereo unspecified) + CN(C)c1ccc(Nc2c3ccc(NC(=O)CCN4CCCC4)cc3nc3cc(NC(=O)CCN4CCCC4)ccc23)cc1,IC50,second compound 0.0316 µM,879 nM
same,IC50,second compound 0.1 µM,832 nM
same,IC50,second compound 0.316 µM,1020 nM
same,IC50,second compound 1 µM,850 nM
same,IC50,second compound 3.16 µM,1330 nM
same,IC50,second compound 10 µM,1380 nM
same,"viability, T/C",[1],99.7%
same,"viability, T/C",[2],93.1%
same,"viability, T/C",[3],98%
same,"viability, T/C",[4],44.1%
same,"viability, T/C",[5],16.2%
same,"viability, T/C",[6],17.2%
same,"viability, T/C",[7],104%
same,"viability, T/C",[8],112%
same,"viability, T/C",[9],117%
same,"viability, T/C",[10],38.4%
same,"viability, T/C",[11],17.5%
same,"viability, T/C",[12],16.8%
same,"viability, T/C",[13],97.1%
same,"viability, T/C",[14],99.2%
same,"viability, T/C",[15],99%
same,"viability, T/C",[16],50.6%
same,"viability, T/C",[17],12.9%
same,"viability, T/C",[18],13.7%
same,"viability, T/C",[19],99.3%
same,"viability, T/C",[20],93.8%
same,"viability, T/C",[21],91.5%
same,"viability, T/C",[22],43.3%
same,"viability, T/C",[23],14.8%
same,"viability, T/C",[24],14.5%
same,"viability, T/C",[25],86.4%
same,"viability, T/C",[26],78.4%
same,"viability, T/C",[27],89.2%
same,"viability, T/C",[28],61.5%
same,"viability, T/C",[29],15.8%
same,"viability, T/C",[30],14.8%
same,"viability, T/C",[31],61%
same,"viability, T/C",[32],76.7%
same,"viability, T/C",[33],69.1%
same,"viability, T/C",[34],58.9%
same,"viability, T/C",[35],26.9%
same,"viability, T/C",[36],20.5%
